Measurements taken from the supplement of paper PMC13207355.

How the values were obtained:
Settings in all cases: exposure time: 72 h
E13 [1] = patient-derived glioblastoma stem cells of classical subtype; assay: surviving fraction (nuclei count normalised to DMSO); higher = more cells surviving (less toxic)
E21 [2] = patient-derived glioblastoma stem cells of mesenchymal subtype; assay: as above
E28 [3] = patient-derived glioblastoma stem cells of classical subtype; assay: as above
E31 [4] = patient-derived glioblastoma stem cells of proneural subtype; assay: as above
E34 [5] = patient-derived glioblastoma stem cells of proneural subtype; assay: as above
E57 [6] = patient-derived glioblastoma stem cells of mesenchymal subtype; assay: as above
FT3469 [7] = normal neural stem cell line; assay: as above
E13 [8] = assay: phenotypic distance (Euclidean, principal components) from DMSO controls (arbitrary units); higher = stronger morphological change
E21 [9] = assay: as above
E28 [10] = assay: as above
E31 [11] = assay: as above
E34 [12] = assay: as above
E57 [13] = assay: as above
FT3469 [14] = assay: as above
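Throughout, for phenotypic distance (Euclidean, principal components) from DMSO controls: cell Painting imaging in 384-well plates, CellProfiler features reduced to at least 20 principal components, Euclidean distance versus same-plate DMSO vehicle wells (0.1% v/v), median over six images per well.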
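Throughout, for surviving fraction (nuclei count normalised to DMSO): nuclei counted by high-content imaging of Hoechst-stained cells in laminin-coated 384-well plates, relative to 0.1% DMSO vehicle wells, with staurosporine as cell-death control.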

O=C(Oc1cccc2cccnc12)c1ccccc1 [Benzoxiquine]
Settings	phenotypic distance	surviving fraction
E13 [1], 4.1 nM	–	0.876
E13 [1], 12.3 nM	–	0.962
E13 [1], 37 nM	–	1.05
E13 [1], 111.1 nM	–	0.997
E13 [1], 333.3 nM	–	1.09
E13 [1], 1000 nM	–	0.85
E13 [1], 3000 nM	–	0.000925
E13 [8], 4.1 nM	1.08	–
E13 [8], 12.3 nM	1.14	–
E13 [8], 37 nM	0.78	–
E13 [8], 111.1 nM	0.506	–
E13 [8], 333.3 nM	0.775	–
E13 [8], 1000 nM	0.864	–
E13 [8], 3000 nM	19.1	–
E21 [2], 4.1 nM	–	0.962
E21 [2], 12.3 nM	–	1.11
E21 [2], 37 nM	–	1.13
E21 [2], 111.1 nM	–	1.1
E21 [2], 333.3 nM	–	0.981
E21 [2], 1000 nM	–	1.04
E21 [2], 3000 nM	–	0
E21 [9], 4.1 nM	1.17	–
E21 [9], 12.3 nM	0.851	–
E21 [9], 37 nM	1.34	–
E21 [9], 111.1 nM	0.833	–
E21 [9], 333.3 nM	1.24	–
E21 [9], 1000 nM	0.732	–
E21 [9], 3000 nM	23.9	–
E28 [3], 4.1 nM	–	0.997
E28 [3], 12.3 nM	–	1.14
E28 [3], 37 nM	–	1.07
E28 [3], 111.1 nM	–	1.1
E28 [3], 333.3 nM	–	1.07
E28 [3], 1000 nM	–	1.27
E28 [3], 3000 nM	–	0.00427
E28 [10], 4.1 nM	1.39	–
E28 [10], 12.3 nM	0.791	–
E28 [10], 37 nM	1.24	–
E28 [10], 111.1 nM	0.938	–
E28 [10], 333.3 nM	0.845	–
E28 [10], 1000 nM	1.59	–
E28 [10], 3000 nM	17.6	–
E31 [4], 4.1 nM	–	0.993
E31 [4], 12.3 nM	–	0.838
E31 [4], 37 nM	–	0.975
E31 [4], 111.1 nM	–	1.19
E31 [4], 333.3 nM	–	1.04
E31 [4], 1000 nM	–	1.04
E31 [4], 3000 nM	–	0
E31 [11], 4.1 nM	1.12	–
E31 [11], 12.3 nM	1.22	–
E31 [11], 37 nM	0.854	–
E31 [11], 111.1 nM	1.7	–
E31 [11], 333.3 nM	1.32	–
E31 [11], 1000 nM	1.22	–
E31 [11], 3000 nM	15.5	–
E34 [5], 4.1 nM	–	0.906
E34 [5], 12.3 nM	–	0.899
E34 [5], 37 nM	–	0.981
E34 [5], 111.1 nM	–	1.1
E34 [5], 333.3 nM	–	1.07
E34 [5], 1000 nM	–	0.844
E34 [5], 3000 nM	–	0.00175
E34 [12], 4.1 nM	0.673	–
E34 [12], 12.3 nM	0.614	–
E34 [12], 37 nM	0.56	–
E34 [12], 111.1 nM	0.455	–
E34 [12], 333.3 nM	0.815	–
E34 [12], 1000 nM	1.42	–
E34 [12], 3000 nM	19.8	–
E57 [6], 4.1 nM	–	0.965
E57 [6], 12.3 nM	–	0.992
E57 [6], 37 nM	–	0.997
E57 [6], 111.1 nM	–	1.01
E57 [6], 333.3 nM	–	0.999
E57 [6], 1000 nM	–	1.02
E57 [6], 3000 nM	–	0.00305
E57 [13], 4.1 nM	0.568	–
E57 [13], 12.3 nM	0.458	–
E57 [13], 37 nM	0.358	–
E57 [13], 111.1 nM	0.673	–
E57 [13], 333.3 nM	0.716	–
E57 [13], 1000 nM	0.72	–
E57 [13], 3000 nM	13.7	–
FT3469 [7], 4.1 nM	–	1.05
FT3469 [7], 12.3 nM	–	0.924
FT3469 [7], 37 nM	–	1.06
FT3469 [7], 111.1 nM	–	1.03
FT3469 [7], 333.3 nM	–	1.21
FT3469 [7], 1000 nM	–	1
FT3469 [7], 3000 nM	–	0.00288
FT3469 [14], 4.1 nM	0.579	–
FT3469 [14], 12.3 nM	0.893	–
FT3469 [14], 37 nM	0.62	–
FT3469 [14], 111.1 nM	0.641	–
FT3469 [14], 333.3 nM	1.07	–
FT3469 [14], 1000 nM	0.688	–
FT3469 [14], 3000 nM	14.3	–
